Literature values as cited in patent publication US11224632B2 (priority 2016, dated 2022).

Target: N-type calcium channel (Homo sapiens, UniProt Q00975)
Conditions: in vivo; cited from earlier work

Chain of N-type calcium channel (Q00975 whole entry, looked up): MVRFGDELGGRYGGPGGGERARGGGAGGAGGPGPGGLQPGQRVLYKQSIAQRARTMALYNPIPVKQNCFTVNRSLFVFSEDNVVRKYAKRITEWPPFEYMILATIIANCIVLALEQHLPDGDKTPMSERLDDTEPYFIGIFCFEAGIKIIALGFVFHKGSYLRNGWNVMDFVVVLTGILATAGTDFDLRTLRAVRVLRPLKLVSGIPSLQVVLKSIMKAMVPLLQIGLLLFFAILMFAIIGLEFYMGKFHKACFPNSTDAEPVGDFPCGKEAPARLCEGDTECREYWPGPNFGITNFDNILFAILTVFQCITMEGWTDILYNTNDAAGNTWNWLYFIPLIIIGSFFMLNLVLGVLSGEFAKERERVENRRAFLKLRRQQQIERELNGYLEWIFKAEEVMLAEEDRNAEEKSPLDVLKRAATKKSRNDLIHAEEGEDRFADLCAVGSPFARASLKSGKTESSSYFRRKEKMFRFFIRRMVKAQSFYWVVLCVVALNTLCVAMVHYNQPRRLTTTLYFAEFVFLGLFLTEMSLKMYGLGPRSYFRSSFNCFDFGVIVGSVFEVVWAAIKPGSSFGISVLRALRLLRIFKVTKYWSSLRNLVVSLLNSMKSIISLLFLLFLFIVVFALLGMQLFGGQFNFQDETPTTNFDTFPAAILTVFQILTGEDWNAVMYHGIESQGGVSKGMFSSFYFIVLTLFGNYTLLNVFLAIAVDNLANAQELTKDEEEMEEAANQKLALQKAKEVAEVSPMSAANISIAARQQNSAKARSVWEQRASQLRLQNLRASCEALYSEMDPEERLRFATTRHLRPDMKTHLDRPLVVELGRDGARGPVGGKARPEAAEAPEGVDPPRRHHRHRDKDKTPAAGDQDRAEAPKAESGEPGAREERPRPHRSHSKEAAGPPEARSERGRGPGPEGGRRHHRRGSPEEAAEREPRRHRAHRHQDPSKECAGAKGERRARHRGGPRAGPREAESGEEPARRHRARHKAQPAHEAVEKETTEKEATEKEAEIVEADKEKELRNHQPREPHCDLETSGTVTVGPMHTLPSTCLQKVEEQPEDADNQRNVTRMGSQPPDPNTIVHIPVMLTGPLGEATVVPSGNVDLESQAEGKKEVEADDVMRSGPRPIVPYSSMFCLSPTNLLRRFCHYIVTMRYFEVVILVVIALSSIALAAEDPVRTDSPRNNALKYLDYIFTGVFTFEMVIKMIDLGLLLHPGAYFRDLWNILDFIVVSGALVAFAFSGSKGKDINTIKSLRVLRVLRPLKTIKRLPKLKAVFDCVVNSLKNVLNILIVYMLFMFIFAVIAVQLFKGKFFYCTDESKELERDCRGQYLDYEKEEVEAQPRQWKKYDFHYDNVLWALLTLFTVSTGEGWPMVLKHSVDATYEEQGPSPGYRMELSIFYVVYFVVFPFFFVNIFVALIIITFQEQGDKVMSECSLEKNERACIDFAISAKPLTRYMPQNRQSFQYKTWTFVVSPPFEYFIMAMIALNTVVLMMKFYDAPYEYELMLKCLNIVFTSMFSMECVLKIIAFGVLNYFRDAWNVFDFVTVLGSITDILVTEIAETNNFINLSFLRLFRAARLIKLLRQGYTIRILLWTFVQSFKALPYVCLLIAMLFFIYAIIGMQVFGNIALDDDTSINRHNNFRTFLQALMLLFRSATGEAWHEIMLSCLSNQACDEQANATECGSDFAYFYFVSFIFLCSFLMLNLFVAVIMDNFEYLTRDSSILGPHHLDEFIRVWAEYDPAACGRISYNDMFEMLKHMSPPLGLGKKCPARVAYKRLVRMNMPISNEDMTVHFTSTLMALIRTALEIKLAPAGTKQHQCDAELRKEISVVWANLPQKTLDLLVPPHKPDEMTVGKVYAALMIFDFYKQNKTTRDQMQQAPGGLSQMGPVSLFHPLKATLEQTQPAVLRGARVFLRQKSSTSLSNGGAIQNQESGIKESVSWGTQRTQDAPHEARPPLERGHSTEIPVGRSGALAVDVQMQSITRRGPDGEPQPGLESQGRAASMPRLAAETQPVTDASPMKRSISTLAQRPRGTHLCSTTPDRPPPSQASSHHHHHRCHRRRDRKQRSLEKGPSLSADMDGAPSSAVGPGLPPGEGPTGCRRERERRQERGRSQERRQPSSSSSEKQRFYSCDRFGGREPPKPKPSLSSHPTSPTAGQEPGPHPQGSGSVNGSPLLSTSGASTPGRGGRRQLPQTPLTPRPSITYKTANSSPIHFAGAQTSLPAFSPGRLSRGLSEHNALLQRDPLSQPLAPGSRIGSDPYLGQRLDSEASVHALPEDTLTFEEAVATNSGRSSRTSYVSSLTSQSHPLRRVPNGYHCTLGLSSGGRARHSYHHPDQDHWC

For `CSCC[C@@H]1NC(=O)[C@H](CC(C)C)NC(=O)[C@H](CCCNC(=N)N)NC(=O)[C@H](CO)NC(=O)[C@@H]2CSSC[C@@H]3NC(=O)[C@H](CO)NC(=O)CNC(=O)[C@H]([C@@H](C)O)NC(=O)[C@H](CSSC[C@H](N)C(=O)N[C@@H](CCCCN)C(=O)NCC(=O)N[C@@H](CCCCN)C(=O)NCC(=O)N[C@@H](C)C(=O)N[C@@H](CCCCN)C(=O)N2)NC(=O)[C@H](CSSC[C@@H](C(N)=O)NC(=O)[C@H](CCCCN)NC(=O)CNC(=O)[C@H](CO)NC(=O)[C@H](CCCNC(=N)N)NC3=O)NC(=O)[C@H](CC(=O)O)NC(=O)[C@H](Cc2ccc(O)cc2)NC1=O` [ziconotide], the “patients with severe CNS adverse effects” value is listed as 88%.
